# Several values for one entry are separate records, joined by “and”; a condition that tells them apart may be missing. Equal entries are not always repeated. Where two headings read alike, the source gives them in different places.
# What was measured:
# Assay type in all cases: cell-based
# Glioma SNB19M (MGMT+) [1] = assay: MTT assay for 7-day toxicity assay
# In short: (§1)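 MGMT-transfected or vector-control glioma cells were seeded at 650 cells/well, attached overnight, and exposed for 7 days at 37 °C to compound at final 0.5–1000 μM. Viability was read by MTT (0.4 mg/mL, 4 h) formazan absorbance, with a day-0 plate included.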
# Glioma SNB19V (MGMT−) [2] = assay: MTT assay for 7-day toxicity assay
# In short: as §1
# Glioma U373M (MGMT+) = assay: MTT assay for 7-day toxicity assay
# In short: as §1
# Glioma U373V (MGMT low) = assay: MTT assay for 7-day toxicity assay
# In short: as §1
# Glioma SNB19M (MGMT+) [3] = assay: Clonogenic survival assay (Table 14, assay not named there)
# Protocol: (§2) A clonogenic assay, which measures tumour cell survival and subsequent proliferative ability following drug exposure was used to verify that the cells remaining metabolically active following treatment with TMZ and new derivatives. See, e.g., Brown, J. M., et al., 1999, “Apoptosis, p53, and tumor cell sensitivity to anticancer agents”, Cancer Research, Vol. 59, No. 7, pp. 1391-1399.
# (§3) Exponentially growing cells were seeded in triplicate at a density of 200 cells/well in 6 well plate and allowed to attach overnight and then exposed to increasing concentration of TMZ and test compounds (0, 5, 10, 100, 500, 1000 μM). After 18 hours, the plates were changed to drug free media and left to grow in the 37° C., 5% CO2 incubator. After 14 days, the plates were rinsed in PBS and fixed with pre-chilled methanol in room temperature for 20 minutes, and then stained with 0.5% methylene blue in 1:1 methanol/H2O (v/v) for 10 minutes and thoroughly washed in distilled water and air dried. Cell colonies containing >30 cells were counted. Growth inhibition by TMZ and test compounds was estimated by dividing the mean number of colonies under drug treatment by the mean number of colonies without drug treatment.
# Glioma SNB19V (MGMT−) [4] = assay: as above
# Protocol: as §2, §3
# [5] = 168 h, Glioma SNB19M (MGMT+), 7-day MTT, single determinations
# [6] = Glioma SNB19V (MGMT−), 7-day MTT, single determinations
# [7] = 168 h, Glioma SNB19M (MGMT+), 7-day MTT, single determinations, read-out: GI50
# [8] = Glioma SNB19M (MGMT+), 7-day MTT, single determinations, read-out: GI50
# [9] = 168 h, Glioma U373M (MGMT+), 7-day MTT, single determinations, read-out: GI50
# [10] = Glioma U373M (MGMT+), 7-day MTT, single determinations, read-out: GI50
# [11] = Glioma SNB19M (MGMT+), read-out: GI50
# [12] = Glioma U373M (MGMT+), read-out: GI50
# [13] = Glioma U373V (MGMT low), read-out: GI50
# [14] = Glioma SNB19V (MGMT−), read-out: GI50
smiles,measurement,setting,value
"C[C@H](c1ccccc1)n1nnc2c(C(N)=O)ncn2c1=O [BB-001, (R)-3-(-1-Phenylethyl)-8-carbamoylimidazotetrazin-4-one]",GI50,Glioma SNB19M (MGMT+) [1]; [5],46.1 µM
same,GI50,"Glioma SNB19M (MGMT+) [1]; Glioma SNB19M (MGMT+), 7-day MTT, single determinations",53.4 µM
same,GI50,"Glioma SNB19V (MGMT−) [2]; 168 h, Glioma SNB19V (MGMT−), 7-day MTT, single determinations",33.6 µM
same,GI50,Glioma SNB19V (MGMT−) [2]; [6],31.8 µM
same,GI50,"Glioma U373M (MGMT+); 168 h, Glioma U373M (MGMT+), 7-day MTT, single determinations",67.1 µM
same,GI50,"Glioma U373M (MGMT+); Glioma U373M (MGMT+), 7-day MTT, single determinations",79.6 µM
same,GI50,"Glioma U373V (MGMT low); 168 h, Glioma U373V (MGMT low), 7-day MTT, single determinations",49 µM
same,GI50,"Glioma U373V (MGMT low); Glioma U373V (MGMT low), 7-day MTT, single determinations",71.3 µM
same,GI50,Glioma SNB19M (MGMT+) [3],8.5 µM
same,GI50,Glioma SNB19V (MGMT−) [4],22.2 µM
"C#CCn1nnc2c(C(N)=O)ncn2c1=O [EE-001, 3-Propargyl-8-carbamoylimidazotetrazin-4-one]",GI50,Glioma SNB19M (MGMT+) [1]; [7],26.9 µM
same,GI50,Glioma SNB19M (MGMT+) [1]; [8],30.6 µM and 41.6 µM and 52.1 µM
same,GI50,Glioma U373M (MGMT+); [9],45.1 µM
same,GI50,Glioma U373M (MGMT+); [10],42.8 µM and 24.6 µM and 31.7 µM
same,GI50,Glioma SNB19M (MGMT+) [3],7.8 µM
same,GI50,Glioma SNB19V (MGMT−) [4],7 µM
CCOC(=O)Cn1nnc2c(C(N)=O)ncn2c1=O [PX-016],GI50,Glioma SNB19M (MGMT+) [1]; [7],66.7 µM
same,GI50,Glioma SNB19M (MGMT+) [1]; [8],54 µM and 61.7 µM and 61.8 µM
same,GI50,"Glioma SNB19V (MGMT−) [2]; 168 h, Glioma SNB19V (MGMT−), 7-day MTT, single determinations, read-out: GI50",55.2 µM
same,GI50,"Glioma SNB19V (MGMT−) [2]; Glioma SNB19V (MGMT−), 7-day MTT, single determinations, read-out: GI50",48.7 µM and 57.3 µM and 48.4 µM
same,GI50,Glioma U373M (MGMT+); [9],49.6 µM
same,GI50,Glioma U373M (MGMT+); [10],62.5 µM and 54.7 µM
same,GI50,"Glioma U373V (MGMT low); 168 h, Glioma U373V (MGMT low), 7-day MTT, single determinations, read-out: GI50",49.9 µM
same,GI50,"Glioma U373V (MGMT low); Glioma U373V (MGMT low), 7-day MTT, single determinations, read-out: GI50",59.6 µM and 73.8 µM and 69.5 µM
COCn1nnc2c(C(N)=O)ncn2c1=O [PX-020],GI50,Glioma SNB19M (MGMT+) [1]; [11],28.7 µM and 26.6 µM and 43.4 µM
same,GI50,Glioma U373M (MGMT+); [12],26.5 µM and 39.6 µM
same,GI50,Glioma U373V (MGMT low); [13],21.3 µM and 22 µM and 30.2 µM and 30.4 µM
same,GI50,Glioma SNB19M (MGMT+) [3],30 µM
same,GI50,Glioma SNB19V (MGMT−) [4],38.6 µM
C[Si](C)(C)CCOCn1nnc2c(C(N)=O)ncn2c1=O [PX-021],GI50,Glioma SNB19M (MGMT+) [1]; [11],26.7 µM and 29.1 µM
same,GI50,Glioma SNB19V (MGMT−) [2]; [14],36 µM and 26.9 µM and 26.8 µM
same,GI50,Glioma U373M (MGMT+); [12],27.2 µM and 23.6 µM and 21.9 µM
same,GI50,Glioma U373V (MGMT low); [13],28.2 µM and 22.3 µM and 25.5 µM
same,GI50,Glioma SNB19M (MGMT+) [3],22.1 µM
same,GI50,Glioma SNB19V (MGMT−) [4],43.3 µM
NC(=O)c1ncn2c(=O)n(CCl)nnc12 [PX-030],GI50,Glioma SNB19M (MGMT+) [1]; [11],36.6 µM and 25.4 µM
same,GI50,Glioma SNB19V (MGMT−) [2]; [14],44.6 µM and 24.6 µM
same,GI50,Glioma U373M (MGMT+); [12],23.7 µM and 25.1 µM
same,GI50,Glioma U373V (MGMT low); [13],34.8 µM and 23.8 µM
same,GI50,Glioma SNB19M (MGMT+) [3],31.5 µM
same,GI50,Glioma SNB19V (MGMT−) [4],38.9 µM
"Cn1nnc2c(C(N)=O)ncn2c1=O [TMZ, 3-Methyl-4-oxo-3,4-dihydro-imidazo[5,1-d][1,2,3,5]tetrazine-8-carboxylic acid amide, reference compound]",GI50,Glioma SNB19M (MGMT+) [1]; [5],464 µM
same,GI50,Glioma SNB19M (MGMT+) [1]; Glioma SNB19M (MGMT+),470 µM
same,GI50,"Glioma SNB19M (MGMT+) [1]; read-out: TMZ GI50 Average, Glioma SNB19M (MGMT+), average of Table 1",470 µM
same,GI50,Glioma SNB19V (MGMT−) [2]; Glioma SNB19V (MGMT−),35.7 µM
same,GI50,Glioma SNB19V (MGMT−) [2]; [6],27.6 µM
same,GI50,"Glioma SNB19V (MGMT−) [2]; read-out: TMZ GI50 Average, Glioma SNB19V (MGMT−), average of Table 1",35.7 µM
same,GI50,Glioma U373M (MGMT+); Glioma U373M (MGMT+),369 µM
same,GI50,"Glioma U373M (MGMT+); read-out: TMZ GI50 Average, Glioma U373M (MGMT+), average of Table 1",369 µM
same,GI50,Glioma U373V (MGMT low); Glioma U373V (MGMT low),68 µM
same,GI50,"Glioma U373V (MGMT low); read-out: TMZ GI50 Average, Glioma U373V (MGMT low), average of Table 1",68 µM
same,GI50,Glioma SNB19M (MGMT+) [3],875 µM
same,GI50,Glioma SNB19M (MGMT+) [3]; listed as Temozolomide,834 µM
same,GI50,Glioma SNB19V (MGMT−) [4],32.2 µM
"C[S+]([O-])Cn1nnc2c(C(N)=O)ncn2c1=O (centres unmarked) [UU-003, 3-Methanesulfinylmethyl-4-oxo-3,4-dihydro-imidazo[5,1-d][1,2,3,5]tetrazine-8-carboxylic acid amide]",GI50,Glioma SNB19V (MGMT−) [2]; [14],30.3 µM and 38.1 µM and 25.3 µM and 21.8 µM
same,GI50,Glioma U373M (MGMT+); [12],4.6 µM and 8.6 µM and 7.6 µM and 8.2 µM

# From patent publication US8450479B2, “3-substituted-4-oxo-3,4-dihydro-imidazo[5,1-d][1,2,3,5-tetrazine-8-carboxylic acid amides and their use” (Pharminox Limited, priority 2007, dated 2013)
